Data on 18 compounds can be found in patent US5861405A, “S-substituted 1,3,7-trialkyl-xanthine derivatives” (priority 1994, dated 1999).

Data set [1] deals with locomotor activity in mice. Description: Locomotor activity in mice, open field (Digiscan activity monitor). The class given is in vivo, mouse. The settings on record: for locomotor stimulation, in words: mice.
Description: Adult male mice of the NIH (Swiss) strain weighing 25-30 g were housed in groups of 10 animals per cage with a light-dark cycle of 12:12 h. The animals were given free access to standard pellet food and water and were acclimatized to laboratory conditions for 24 h prior to testing. Each animal was used only once in the activity monitor.
Locomotor activity of individual animals was studied in an open field using a Digiscan activity monitor (Omnitech Electronics Inc., Columbus, Ohio) equipped with an IBM-compatible computer. The computer-tabulated measurements represent multivariate locomotor analysis with specific measures, such as simultaneous measurements of ambulatory, rearing, stereotypical, and rotational behaviors. Data were collected in the morning, for three consecutive intervals of 10 minutes each, and analyzed separately and as a group. Statistical analysis was performed using the Student t test. […] Drugs were administered i.p. in a volume corresponding to 5 ml/kg body weight. Where applicable, the antagonist was injected 10 minutes before the agonist. ED50 values were determined using regression analysis on the InPlot software (GraphPAD, San Diego, Calif.).
The next data set relates to locomotor activity. To be noted: i.p., previously determined; cited from earlier work.
In data set [2] the target is T1, rat A1 cortical receptors (Rattus norvegicus, UniProt P25099).
T1 construct: Rat cerebral cortical membranes and striatal membranes were prepared; from tissue; host or cells: rat cerebral cortex membranes
T1 sequence (P25099 1-326): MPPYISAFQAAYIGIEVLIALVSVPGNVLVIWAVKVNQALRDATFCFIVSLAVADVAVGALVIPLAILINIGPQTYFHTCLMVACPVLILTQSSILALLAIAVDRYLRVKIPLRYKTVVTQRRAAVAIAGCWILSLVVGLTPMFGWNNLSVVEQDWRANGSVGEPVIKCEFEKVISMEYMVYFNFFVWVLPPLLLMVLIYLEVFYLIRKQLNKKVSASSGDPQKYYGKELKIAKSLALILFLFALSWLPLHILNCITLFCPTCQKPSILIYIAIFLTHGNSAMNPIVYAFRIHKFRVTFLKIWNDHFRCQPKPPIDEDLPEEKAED
Description: Radioligand binding, [3H]N6-phenylisopropyladenosine ([3H]PIA), rat cortical A1 receptors. To be noted: for Ki: Table I, vs [3H]PIA (1 nM), rat A1 receptors, read-out: Ki (A1); for inhibition at 10 µM: 1.5 h, at 10^-5, vs [3H]PIA, read-out: Percent displacement of specific binding (A1).

For data set [3], the target named is A1 receptors, guinea pig brain. The settings on record: vs [3H]CHA in guinea pig brain; read-out: Ki (A1), Shimada et al.; cited from earlier work.
The target of data set [4] is A2 receptors, rat striatum. To be noted: vs [3H]NECA in rat striatum; read-out: Ki (A2a), Shimada et al.; cited from earlier work.
Another data set is described as follows: Aqueous solubility. To be noted: for solubility kinetic: water, 0.5% dmso, organic solvent or mixture.
The target of data set [5] is rat striatal A2a receptors (Rattus norvegicus, UniProt P30543). Description: Radioligand binding, [3H]CGS 21680, rat striatal A2a receptors. Details: Rat cerebral cortical membranes and striatal membranes were prepared; from tissue; host or cells: rat striatal membranes. The settings on record: for A1/A2a ratio: ratio of Ki values.
Where [6] appears, read: Ki value / affinity at A2 receptors.
Where [7] appears, read: Table I, vs [3H]CGS21680 (5 nM), rat striatal A2 receptors, read-out: Ki (A2a).

SMILES strings stand for the structures. Values after ≈ are worked out from the molar mass of the structure shown. Values joined by “and” are separate entries in the source; they are usually repeats but may differ in a detail not shown here. Equal entries are not always repeated. Where two headings read alike, the source gives them in different places.

Chain of rat striatal A2a receptors (P30543 whole entry): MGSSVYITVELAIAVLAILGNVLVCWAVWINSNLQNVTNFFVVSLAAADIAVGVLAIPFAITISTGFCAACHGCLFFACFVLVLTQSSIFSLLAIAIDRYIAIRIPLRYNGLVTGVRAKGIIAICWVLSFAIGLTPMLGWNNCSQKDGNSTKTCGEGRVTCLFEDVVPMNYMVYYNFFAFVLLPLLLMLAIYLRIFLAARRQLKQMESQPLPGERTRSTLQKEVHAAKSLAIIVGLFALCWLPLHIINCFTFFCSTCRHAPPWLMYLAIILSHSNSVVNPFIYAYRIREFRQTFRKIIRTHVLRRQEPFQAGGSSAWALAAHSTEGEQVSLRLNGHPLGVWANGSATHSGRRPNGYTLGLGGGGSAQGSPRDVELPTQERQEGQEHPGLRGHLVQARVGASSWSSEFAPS
Description for Aqueous solubility: To avoid precipitation associated with serial aqueous dilutions, the only point at which DMSO was added to aqueous medium was immediately prior to the incubation.

For the compound `CCCn1c(=O)c2[nH]c(C3CCCC3)nc2n(CCC)c1=O` [CPX, 8-cyclopentyl-1,3-dipropyl-xanthine, reference compound], the “locomotor stimulation, in words” value in data set [1] was “minimal depressant effect on locomotor activity”.

One may read the ED50 as the dose at which the effect has come halfway, by size or by number of responders. The compound `OC[C@H]1O[C@@H](n2cnc3c(NC4CCCCC4)ncnc32)[C@H](O)[C@@H]1O` [CHA, N^6 -cyclohexyladenosine, reference compound] registered a total distance traveled in data set [1] (CHA control 100 μg/kg i.p., n=9) of 2090±438 cm/30 min. In data set [1] (Mus musculus, ip, CHA, i.p., read-out: ED50 for locomotor depression), the median effective dose (ED50) stood at 0.1 mg/kg.

As to `CCNC(=O)[C@H]1O[C@@H](n2cnc3c(N)nc(NCCc4ccc(CCC(=O)NCCN)cc4)nc32)[C@H](O)[C@@H]1O` [APEC, 2-[(2-aminoethylamino)-carbonylethylphenylethylamino]-5'-N-ethylcarboxamidoadenosine, reference compound], in data set [1] (APEC alone 16 μg/kg, n=13), the total distance traveled turned out to be 2277±229 cm/30 min. Besides, in data set [1] (following 1 mg/kg CSC), the “ED50 for locomotor depression elicited by APEC” value amounted to 0.19 mg/kg. Besides, the “ED50 for locomotor depression” value with locomotor activity was 0.016 mg/kg.

The Ki is a dissociation constant, usually derived from enzyme kinetics or from competition with a known ligand. For the compound `C=CCn1c(=O)c2c(nc(/C=C/c3cc(OC)c(OC)c(OC)c3)n2C)n(CC=C)c1=O` [Compound 46], the Ki in data set [2] was 1930 nM; in data set [3], over 100000 nM; in data set [4] it was 15 nM.

With `COc1cc(/C=C/c2nc3c(c(=O)n(C)c(=O)n3C)n2C)cc(OC)c1OC` [Compound 44b, 1,3,7-trimethyl-8-(3,4,5-trimethoxy)-styryl-xanthine], the figures for the Ki in data set [2], in data set [3] and in data set [4] were 9200 nM, over 100000 nM and 18 nM, respectively.

For the compound `CCCn1c(=O)c2[nH]c(/C=C/c3ccc(OC)c(OC)c3)nc2n(CCC)c1=O` [Compound 52a], the Ki is 71 ± 11 nM in data set [2], 1700 nM in data set [3] and 6700 nM in data set [4].

One may read the solubility as the dissolved amount per volume that the medium holds. Lower therefore signals a poorly soluble substance. For `Cn1c(=O)c2c(nc(/C=C/c3cccc(Cl)c3)n2C)n(C)c1=O` [Compound 28a, 1,3,7-trimethyl-8-(3-chlorostyryl) xanthine], in data set [1], the “increase in clockwise and anti-clockwise rotations” value was 30-60%. The “effect on locomotor activity of concurrent administration” value in data set [1] (APEC 16 μg/kg with CSC 5 mg/kg) was “no effect on the locomotor activity”. Also, the “reversal of APEC-elicited locomotor depression” value in data set [1] (CSC 1 mg/kg i.p., APEC 16 μg/kg) was “nearly completely reverse the locomotor depression”. Besides, the total distance traveled was determined as 4861±243 cm/30 min in data set [1] (CSC 1.0 mg/kg with CPX […], n=9); 4223±496 cm/30 min in data set [1] (CSC 5 mg/kg alone, n=13); 3949±284 cm/30 min in data set [1] (CSC 5 mg/kg with APEC 16 μg/kg, n=14); 2029±250 cm/30 min in data set [1] (CSC 5 mg/kg with CHA, n=8); 3550±230 cm/30 min in data set [1] (CSC alone 1 mg/kg i.p., n=19). The “stimulation of locomotor activity over CSC alone” value in data set [1] (CSC 1.0 mg/kg with CPX […], p<0.001) came out at 37%. In data set [1] (CSC 5 mg/kg with APEC 16 μg/kg), the “increase in locomotor activity versus APEC alone” value was determined as 73%. The “locomotor stimulation over vehicle control” value in data set [1] (CSC 5 mg/kg, 30 min) is given as 22%. In addition, the “effect on locomotor depression elicited by CHA” value in data set [1] (CSC 5 mg/kg, CHA 100 μg/kg i.p.) is “no effect on locomotor depression”. The “increase in locomotor activity versus control” value in data set [1] (CSC 5 mg/kg, last 10 minutes of 30 min) was 56%. Also, the “increase in average distance per move” value in data set [1] (CSC with CPX) is “approximately 30%”. For the same compound, the “locomotor stimulation, in words” value in data set [1] is “no significant effect on locomotor activity”. Also, in data set [1] (typical dose 5 (mg/kg, i.p.)), the Behavioral stimulation entry is given as “+”. The compound further displayed a solubility in the data set “Aqueous solubility” (injection vehicle) of under 1000 µg/mL.

As for `COc1cc(/C=C/c2nc3c([nH]2)c(=O)n(C)c(=O)n3C)cc(OC)c1OC` [Compound 44a], the figures for the Ki in data set [2], in data set [3] and in data set [4] were 2280 nM, over 100000 nM and 71 nM, respectively.

On to `Cn1c(=O)c2c(nc(/C=C/c3cccc(NC(=O)CCC(=O)O)c3)n2C)n(C)c1=O` [Compound 24, 1,3,7-Trimethyl-8-(3-succinylaminostyryl)xanthine], for which the figures for the Ki in data set [2], in data set [5] (setting [6]) and in data set [5] (setting [7]) were 35100 nM, 134 nM and 143 ± 45 nM, respectively. Moreover, the solubility in the data set “Aqueous solubility” (0.1 m k2hpo4) amounted to 19 mM; in the data set “Aqueous solubility” (0.1 m potassium phosphate, pH 7.4), 19 mM. Further, in data set [5] (Table I), the A1/A2a ratio is 250.

As for `Cn1c(=O)c2c(ncn2C)n(C)c1=O` [caffeine, 1,3,7-trimethylxanthine, reference compound], the Behavioral stimulation entry in data set [1] (mouse, in vivo, ip) was “+++”.

Consider `CCCn1c(=O)c2c(nc(/C=C/c3ccc(OC)c(OC)c3)n2C)n(CCC)c1=O` [Compound 52b], for which the values for the Ki in data set [2] and in data set [4] were 577 ± 42 nM and 7.8 nM, respectively.

On to `COc1cc(/C=C/c2nc3c(c(=O)n(C)c(=O)n3C)n2C)cc(OC)c1` [Compound 33b, 1,3,7-Trimethyl-8-(3,5-dimethoxystyryl)xanthine], for which, in data set [2], the inhibition at 10 µM turned out to be 12.5 ± 6.3%. For the same compound, in data set [5] (Table I), the A1/A2a ratio is recorded as over 200. The inhibition constant Ki in data set [5] (setting [7]) worked out at 75.3 ± 29.1 nM.

As a reminder, the solubility (kinetic) is the concentration staying in solution when a stock, usually in DMSO, is diluted into the medium. Take `CCCn1c(=O)c2c(nc(/C=C/c3cc(OC)cc(OC)c3)n2C)n(CCC)c1=O` [Compound 53b, 1,3-Dipropyl-7-methyl-8-(3,5-dimethoxystyryl)xanthine]: the “apparent A1 affinity versus DMSO concentration” value in data set [2] (0.5 and 1% DMSO) was “somewhat dependent on DMSO concentration”. The Ki in data set [2] is 2630 nM; in data set [5] (setting [6]) it was 24 nM and ≤ 50 nM; in data set [5] (setting [7]), 24 ± 6 nM. Moreover, the kinetic solubility in “Aqueous solubility” (concentration above which compound did not remain dissolved) was found to be 0.01 mM (≈ 4.12 µg/mL); in the data set “Aqueous solubility” (theoretical concentration beyond which UV absorption decreases (supersaturation)) it was 0.02 mM (≈ 8.25 µg/mL). In addition, the “selectivity relative to 52b” value in data set [5] amounted to 5 fold. In addition, the “apparent affinity at A2 receptors versus DMSO concentration” value in data set [5] (0.5% to 6% DMSO) was “constant within the range of 0.5% to 6% DMSO”. The A1/A2a ratio in data set [5] (Table I) was determined as 110. The same compound yielded an A2-selectivity in data set [5] (rat brain binding, this study) of 110 fold.

For the compound `Cn1c(=O)c2c(nc(/C=C/c3cccc(N(C(=O)OC(C)(C)C)C(=O)OC(C)(C)C)c3)n2C)n(C)c1=O` [Compound 26, 1,3,7-Trimethyl-8-[3-[di-(tert-butyloxycarbonyl)amino]styryl]xanthine], the Ki in data set [2] stood at 10800 nM; in data set [5] (setting [7]), 740 ± 77 nM. The A1/A2a ratio in data set [5] (Table I) is 15. The “reduction of potency at A2-receptors” value in data set [5] (very bulky 3-position substituents) is given as “roughly 20 fold”.

For `CCCn1c(=O)c2c(nc(/C=C/c3cccc([N+](=O)[O-])c3)n2C)n(CCC)c1=O` [Compound 48], the Ki in data set [2] came to 272 ± 68 nM; in data set [5] (setting [7]), 56.2 ± 6.8 nM. Also, the A1/A2a ratio in data set [5] (Table I) was 4.8.

With `CCCn1c(=O)c2c(nc(/C=C/c3ccc(OC)c(OC)c3OC)n2C)n(CCC)c1=O` [Compound 55b], the figures for the Ki in data set [2] and in data set [5] (setting [7]) were 379 ± 128 nM and 68.5 ± 12.6 nM, respectively. In data set [5] (Table I), the A1/A2a ratio is recorded as 5.5.

In the case of `COc1ccc(/C=C/c2nc3c([nH]2)c(=O)n(C)c(=O)n3C)c(OC)c1OC` [Compound 43a], in data set [2], the inhibition at 10 µM was determined as 26 ± 10%. Also, the A1/A2a ratio in data set [5] (Table I) is on record as over 5. The Ki in data set [5] (setting [7]) is 1610 nM.

`COc1cc(/C=C/c2nc3c(c(=O)n(C)c(=O)n3C)n2C)cc(OC)c1OCCCCN` [Compound 38, 1,3,7-Trimethyl-8-[3,5-dimethoxy-4-[4-aminobutyloxy]styryl]xanthine]: the Ki in data set [2] came out at 6170 nM; in data set [5] (setting [7]), 173 ± 43 nM. Besides, the A1/A2a ratio in data set [5] (Table I) is recorded as 36.
